One test has as its target PI3Kδ kinase (Homo sapiens (Human), UniProt O00329). As to the kind of experiment: PI3Kδ kinase ADP-Glo assay (Reaction Biology Corporation). The settings on record: read-out: PI3Kδ IC50.
A further test addresses FMS kinase (Homo sapiens (Human), UniProt P07333). As to the kind of experiment: LanthaScreen kinase assay (ATP, fluorescent-PolyGT substrate, TR-FRET). The class given is biochemical.
In a further test the test system is MCF-7. As to the kind of experiment: Cancer cell proliferation assay, single agent. The class given is cell-based. The settings on record: Homo sapiens, MCF7; MCF-7 cells; treated for 24-168 hours; read-out: IC50 (nM) MCF-7.
A further test addresses CDK4 (Homo sapiens (Human), UniProt P11802). As to the kind of experiment: In vitro kinase inhibition, luminescence (ADP-Glo) with retinoblastoma substrate. The class given is biochemical.
A further test has as its target CDK6 (Homo sapiens (Human), UniProt Q00534). As to the kind of experiment: biochemical. In kind it is biochemical.
For another test, the system named is DU4475. As to the kind of experiment: Cancer cell proliferation assay, single agent. In kind it is cell-based. The settings on record: Homo sapiens, DU-4475, read-out: IC50 (nM) DU4475.

CDK4, sequence (P11802 whole entry): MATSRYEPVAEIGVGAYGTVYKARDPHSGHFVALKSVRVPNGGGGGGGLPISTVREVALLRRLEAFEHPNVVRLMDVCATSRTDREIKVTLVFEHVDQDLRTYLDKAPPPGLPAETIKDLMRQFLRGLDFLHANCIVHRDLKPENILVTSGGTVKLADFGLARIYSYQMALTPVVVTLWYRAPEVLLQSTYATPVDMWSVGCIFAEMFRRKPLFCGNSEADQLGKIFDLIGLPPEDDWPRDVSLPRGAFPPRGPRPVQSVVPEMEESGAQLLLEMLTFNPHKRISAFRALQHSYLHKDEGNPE
CDK4, sequence (P24385 whole entry partner): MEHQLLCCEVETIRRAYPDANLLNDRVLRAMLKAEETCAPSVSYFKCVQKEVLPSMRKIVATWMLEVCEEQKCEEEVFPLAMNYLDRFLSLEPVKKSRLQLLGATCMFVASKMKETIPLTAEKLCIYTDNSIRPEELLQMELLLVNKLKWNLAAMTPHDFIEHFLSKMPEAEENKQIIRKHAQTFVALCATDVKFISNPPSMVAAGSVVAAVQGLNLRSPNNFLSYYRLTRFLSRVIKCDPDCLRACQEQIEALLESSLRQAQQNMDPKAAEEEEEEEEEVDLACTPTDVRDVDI
PI3Kδ kinase, sequence (O00329 whole entry): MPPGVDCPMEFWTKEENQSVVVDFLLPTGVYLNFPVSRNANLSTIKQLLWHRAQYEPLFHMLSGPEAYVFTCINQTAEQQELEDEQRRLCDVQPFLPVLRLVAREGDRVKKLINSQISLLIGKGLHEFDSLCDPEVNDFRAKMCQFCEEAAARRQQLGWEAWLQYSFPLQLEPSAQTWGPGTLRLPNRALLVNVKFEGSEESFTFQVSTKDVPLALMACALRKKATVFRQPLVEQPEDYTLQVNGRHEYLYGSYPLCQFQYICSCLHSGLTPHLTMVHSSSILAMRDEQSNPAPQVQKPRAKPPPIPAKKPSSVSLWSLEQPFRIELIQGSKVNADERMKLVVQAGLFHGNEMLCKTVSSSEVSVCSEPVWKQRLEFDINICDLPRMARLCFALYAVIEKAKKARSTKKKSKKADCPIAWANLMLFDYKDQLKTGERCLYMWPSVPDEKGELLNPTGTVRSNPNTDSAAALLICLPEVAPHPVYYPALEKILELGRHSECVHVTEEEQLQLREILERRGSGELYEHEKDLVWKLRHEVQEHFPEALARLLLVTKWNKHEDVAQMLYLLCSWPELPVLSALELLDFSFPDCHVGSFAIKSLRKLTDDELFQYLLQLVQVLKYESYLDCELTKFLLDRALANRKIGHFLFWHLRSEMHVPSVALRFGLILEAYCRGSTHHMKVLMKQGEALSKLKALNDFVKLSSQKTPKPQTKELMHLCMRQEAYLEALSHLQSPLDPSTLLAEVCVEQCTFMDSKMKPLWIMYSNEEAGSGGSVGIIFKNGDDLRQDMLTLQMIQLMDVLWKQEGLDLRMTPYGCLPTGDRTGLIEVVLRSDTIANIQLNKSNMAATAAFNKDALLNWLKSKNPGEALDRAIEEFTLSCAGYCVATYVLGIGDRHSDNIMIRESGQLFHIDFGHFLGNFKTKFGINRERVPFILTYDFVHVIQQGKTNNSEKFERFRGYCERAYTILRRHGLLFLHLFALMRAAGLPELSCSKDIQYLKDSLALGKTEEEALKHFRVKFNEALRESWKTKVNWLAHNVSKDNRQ
PI3Kδ kinase, sequence (P27986 whole entry partner): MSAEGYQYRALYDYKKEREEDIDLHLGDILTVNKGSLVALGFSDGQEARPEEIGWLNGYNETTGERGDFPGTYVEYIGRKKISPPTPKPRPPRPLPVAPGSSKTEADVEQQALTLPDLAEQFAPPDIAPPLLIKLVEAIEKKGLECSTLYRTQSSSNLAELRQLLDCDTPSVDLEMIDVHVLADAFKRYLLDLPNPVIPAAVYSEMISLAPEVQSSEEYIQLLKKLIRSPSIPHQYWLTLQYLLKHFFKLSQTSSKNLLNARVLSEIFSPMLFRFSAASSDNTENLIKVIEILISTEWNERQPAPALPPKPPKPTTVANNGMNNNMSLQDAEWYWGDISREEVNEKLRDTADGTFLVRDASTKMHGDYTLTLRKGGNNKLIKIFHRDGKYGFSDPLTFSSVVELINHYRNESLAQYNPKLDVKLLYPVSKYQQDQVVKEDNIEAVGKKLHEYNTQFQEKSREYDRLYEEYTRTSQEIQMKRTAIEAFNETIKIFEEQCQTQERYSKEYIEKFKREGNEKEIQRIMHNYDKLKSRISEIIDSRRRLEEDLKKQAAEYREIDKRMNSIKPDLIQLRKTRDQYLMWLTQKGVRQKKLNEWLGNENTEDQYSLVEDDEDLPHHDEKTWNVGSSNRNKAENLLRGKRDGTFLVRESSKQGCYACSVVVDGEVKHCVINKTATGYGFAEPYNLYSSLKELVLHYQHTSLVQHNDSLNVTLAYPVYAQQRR
FMS kinase, sequence (P07333 20-972): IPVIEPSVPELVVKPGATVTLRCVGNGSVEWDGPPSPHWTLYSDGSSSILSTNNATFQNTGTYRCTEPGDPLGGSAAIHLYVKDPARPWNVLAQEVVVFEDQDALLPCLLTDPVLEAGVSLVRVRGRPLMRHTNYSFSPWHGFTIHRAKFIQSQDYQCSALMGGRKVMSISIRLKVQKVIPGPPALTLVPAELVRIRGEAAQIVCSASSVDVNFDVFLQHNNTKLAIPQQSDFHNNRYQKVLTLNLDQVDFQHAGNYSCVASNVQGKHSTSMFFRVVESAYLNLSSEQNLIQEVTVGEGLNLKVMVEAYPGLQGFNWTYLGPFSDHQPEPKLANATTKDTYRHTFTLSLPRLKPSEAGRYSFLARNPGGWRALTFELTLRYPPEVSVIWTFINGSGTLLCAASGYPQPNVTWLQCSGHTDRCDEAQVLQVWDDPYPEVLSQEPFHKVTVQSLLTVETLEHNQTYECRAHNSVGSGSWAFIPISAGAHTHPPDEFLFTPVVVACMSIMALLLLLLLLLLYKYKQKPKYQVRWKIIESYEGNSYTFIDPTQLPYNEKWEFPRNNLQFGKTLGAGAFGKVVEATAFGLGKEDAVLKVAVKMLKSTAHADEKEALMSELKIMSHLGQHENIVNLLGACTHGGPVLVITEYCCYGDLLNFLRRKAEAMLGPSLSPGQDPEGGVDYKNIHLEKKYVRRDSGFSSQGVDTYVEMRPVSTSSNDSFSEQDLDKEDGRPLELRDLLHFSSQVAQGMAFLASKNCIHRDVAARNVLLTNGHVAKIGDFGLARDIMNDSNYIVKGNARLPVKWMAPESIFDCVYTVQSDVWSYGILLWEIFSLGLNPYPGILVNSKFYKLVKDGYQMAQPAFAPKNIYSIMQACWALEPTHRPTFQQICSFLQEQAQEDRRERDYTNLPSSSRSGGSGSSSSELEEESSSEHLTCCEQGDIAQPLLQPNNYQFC

Turning to `CC(C)N1CCOc2c(F)cc(-c3nc(Nc4ccc(N5CCS(=O)(=O)CC5)c(F)c4)ncc3F)cc21` [Compound 465, 4-(2-fluoro-4-((5-fluoro-4-(8-fluoro-4-isopropyl-3,4-dihydro-2H-benzo[b][1,4]oxazin-6-yl)pyrimidin-2-yl)amino)phenyl)thiomorpholine 1,1-dioxide], the IC50 turned out to be 397 nM on PI3Kδ kinase; 66 nM at FMS kinase; 80 nM with MCF-7; 37 nM against CDK4; 123 nM against CDK6.

On to `CN1CCC(c2ccc(Nc3ncc(F)c(-c4cc(F)c5c(c4)N(C)CCO5)n3)cc2F)CC1` [Compound 466, 5-fluoro-N-(3-fluoro-4-(1-methylpiperidin-4-yl)phenyl)-4-(8-fluoro-4-methyl-3,4-dihydro-2H-benzo[b][1,4]oxazin-6-yl)pyrimidin-2-amine], for which the 50% inhibitory concentration (IC50) at PI3Kδ kinase was 1110 nM; on FMS kinase, 35 nM; with MCF-7, 105 nM; at CDK4, 4 nM; against CDK6, 10 nM.

On to `CC(C)N1CCOc2c(F)cc(-c3nc(Nc4ccc(N5CCN(C(=O)CN(C)C)CC5)cc4)ncc3F)cc21` [Compound 440, 2-(dimethylamino)-1-(4-(4-((5-fluoro-4-(8-fluoro-4-isopropyl-3,4-dihydro-2H-benzo[b][1,4]oxazin-6-yl)pyrimidin-2-yl)amino)phenyl)piperazin-1-yl)ethan-1-one], for which the IC50 on PI3Kδ kinase came out at 35000 nM; against FMS kinase, 24 nM; in the test on MCF-7 it was 30 nM; against CDK4, 2 nM; at CDK6, 2 nM.

In the case of `CC(C)N1CCOc2c(F)cc(-c3nc(Nc4ccc(N5CCN(CCO)CC5)cn4)ncc3F)cc21` [Compound 490, 2-(4-(6-((5-fluoro-4-(8-fluoro-4-isopropyl-3,4-dihydro-2H-benzo[b][1,4]oxazin-6-yl)pyrimidin-2-yl)amino)pyridin-3-yl)piperazin-1-yl)ethan-1-ol], the half-inhibitory concentration (IC50) in the test on DU4475 was 420 nM; on PI3Kδ kinase, over 50000 nM; against FMS kinase it was 2120 nM; in the test on MCF-7 it was 80 nM.

As for `CC(C)N1CCOc2c(F)cc(-c3nc(Nc4cnn(C5CCNCC5)c4)ncc3F)cc21` [Compound 448, 5-fluoro-4-(8-fluoro-4-isopropyl-3,4-dihydro-2H-benzo[b][1,4]oxazin-6-yl)-N-(1-(piperidin-4-yl)-1H-pyrazol-4-yl)pyrimidin-2-amine], the IC50 is 8020 nM on PI3Kδ kinase, 8 nM at FMS kinase, 50 nM with MCF-7 and 3.2 nM against CDK4.

For the molecule `CC(C)N1CCOc2c(F)cc(-c3nc(Nc4ccc5c(c4)CN(C(=O)CN(C)C)CC5)ncc3F)cc21` [Compound 455, 2-(dimethylamino)-1-(7-((5-fluoro-4-(8-fluoro-4-isopropyl-3,4-dihydro-2H-benzo[b][1,4]oxazin-6-yl)pyrimidin-2-yl)amino)-3,4-dihydroisoquinolin-2(1H)-yl)ethan-1-one], the half-inhibitory concentration (IC50) at PI3Kδ kinase was 13100 nM; against FMS kinase, 1.5 nM; with MCF-7, under 4 nM; on CDK4, 4.5 nM; against CDK6, 3 nM.

Turning to `CC(C)N1CCOc2c(F)cc(-c3nc(Nc4ccc(N5CCN(C(=O)CN(C)C)CC5)cn4)ncc3F)cc21` [Compound 441, 2-(dimethylamino)-1-(4-(6-((5-fluoro-4-(8-fluoro-4-isopropyl-3,4-dihydro-2H-benzo[b][1,4]oxazin-6-yl)pyrimidin-2-yl)amino)pyridin-3-yl)piperazin-1-yl)ethan-1-one], the 50% inhibitory concentration (IC50) at PI3Kδ kinase is over 50000 nM; on FMS kinase, 526 nM; in the test on MCF-7 it was 95 nM; against CDK4, 1 nM; against CDK6, 0.6 nM.

As for `CC(C)N1CCOc2c(F)cc(-c3nc(Nc4cc5n(n4)CCN(C)C5)ncc3F)cc21` [Compound 444, N-(5-fluoro-4-(8-fluoro-4-isopropyl-3,4-dihydro-2H-benzo[b][1,4]oxazin-6-yl)pyrimidin-2-yl)-5-methyl-4,5,6,7-tetrahydropyrazolo[1,5-a]pyrazin-2-amine], the IC50 is over 50000 nM at PI3Kδ kinase; 67 nM against FMS kinase; 1250 nM in the test on MCF-7; 1.6 nM on CDK4; 3.4 nM at CDK6.

Consider `CN1CCOc2c(F)cc(-c3nc(Nc4ccc(N5CCC(N(C)C)CC5)c(F)c4)ncc3F)cc21` [Compound 467, N-(4-(4-(dimethylamino)piperidin-1-yl)-3-fluorophenyl)-5-fluoro-4-(8-fluoro-4-methyl-3,4-dihydro-2H-benzo[b][1,4]oxazin-6-yl)pyrimidin-2-amine], for which the IC50 at PI3Kδ kinase worked out at 2430 nM; at FMS kinase it was 14 nM; with MCF-7 it was 185 nM; on CDK4, 4 nM; on CDK6, 5 nM.

Take `CC(C)N1CCOc2c(F)cc(-c3nc(Nc4ccc(N5CCN(C(=O)CN(C)C)CC5)c(F)c4)ncc3F)cc21` [Compound 449, 2-(dimethylamino)-1-(4-(2-fluoro-4-((5-fluoro-4-(8-fluoro-4-isopropyl-3,4-dihydro-2H-benzo[b][1,4]oxazin-6-yl)pyrimidin-2-yl)amino)phenyl)piperazin-1-yl)ethan-1-one]: the IC50 at PI3Kδ kinase came to 4480 nM; against FMS kinase it was 9.5 nM; with MCF-7, 50 nM; at CDK4 it was 1.1 nM; against CDK6, 0.9 nM.

With `CC(C)N1CCOc2c(F)cc(-c3nc(Nc4ccc(N5CCC(O)CC5)c(F)c4)ncc3F)cc21` [Compound 445, 1-(2-fluoro-4-((5-fluoro-4-(8-fluoro-4-isopropyl-3,4-dihydro-2H-benzo[b][1,4]oxazin-6-yl)pyrimidin-2-yl)amino)phenyl)piperidin-4-ol], the IC50 on PI3Kδ kinase was over 50000 nM; against FMS kinase, 69 nM; with MCF-7 it was 120 nM; at CDK4, 31 nM; at CDK6, 69 nM.

In the case of `CC(C)N1CCOc2c(F)cc(-c3nc(Nc4ccc(N5CCN(C(=O)N(C)C)CC5)cn4)ncc3F)cc21` [Compound 453, 4-(6-((5-fluoro-4-(8-fluoro-4-isopropyl-3,4-dihydro-2H-benzo[b][1,4]oxazin-6-yl)pyrimidin-2-yl)amino)pyridin-3-yl)-N,N-dimethylpiperazine-1-carboxamide], the half-maximal inhibitory concentration (IC50) is over 50000 nM on PI3Kδ kinase; over 5000 nM against FMS kinase; 695 nM in the test with MCF-7; 12 nM against CDK4; 30 nM against CDK6.

As to `CC(C)N1CCOc2c(F)cc(-c3nc(Nc4ccc(C5CCN(C(=O)CN(C)C)CC5)c(F)c4)ncc3F)cc21` [Compound 451, 2-(dimethylamino)-1-(4-(2-fluoro-4-((5-fluoro-4-(8-fluoro-4-isopropyl-3,4-dihydro-2H-benzo[b][1,4]oxazin-6-yl)pyrimidin-2-yl)amino)phenyl)piperidin-1-yl)ethan-1-one], the IC50 on PI3Kδ kinase was over 50000 nM; against FMS kinase it was 28 nM; in the test on MCF-7 it was 30 nM; at CDK4 it was 28 nM; against CDK6 it was 27 nM.

With `CC(C)N1CCOc2c(F)cc(-c3nc(Nc4cnn(C5CCC(O)CC5)c4)ncc3F)cc21` (stereo not shown) [Compound 452, 4-(4-((5-fluoro-4-(8-fluoro-4-isopropyl-3,4-dihydro-2H-benzo[b][1,4]oxazin-6-yl)pyrimidin-2-yl)amino)-1H-pyrazol-1-yl)cyclohexan-1-ol], the IC50 on PI3Kδ kinase is 589 nM; against FMS kinase it was 8 nM; with MCF-7 it was 50 nM; against CDK4, 20 nM; against CDK6 it was 45 nM.

As for `CCCN1CCOc2c(F)cc(-c3nc(Nc4ccc(N5CCC(N(C)C)CC5)c(F)c4)ncc3F)cc21` [Compound 468, N-(4-(4-(dimethylamino)piperidin-1-yl)-3-fluorophenyl)-5-fluoro-4-(8-fluoro-4-propyl-3,4-dihydro-2H-benzo[b][1,4]oxazin-6-yl)pyrimidin-2-amine], the IC50 came out at 3780 nM on PI3Kδ kinase; 36 nM against FMS kinase; 95 nM with MCF-7; 8 nM against CDK4; 8 nM against CDK6.

With `CC(C)N1CCOc2c(F)cc(-c3nc(Nc4ccc(C5CCN(C(=O)N(C)C)CC5)cn4)ncc3F)cc21` [Compound 454, 4-(6-((5-fluoro-4-(8-fluoro-4-isopropyl-3,4-dihydro-2H-benzo[b][1,4]oxazin-6-yl)pyrimidin-2-yl)amino)pyridin-3-yl)-N,N-dimethylpiperidine-1-carboxamide], the IC50 was over 50000 nM at PI3Kδ kinase; over 5000 nM on FMS kinase; 920 nM in the test on MCF-7; 18 nM against CDK4; 83 nM at CDK6.

Regarding `CC(C)N1CCOc2c(F)cc(-c3nc(Nc4ccc(C5CCN(C(=O)CN(C)C)CC5)cn4)ncc3F)cc21` [Compound 450, 2-(dimethylamino)-1-(4-(6-((5-fluoro-4-(8-fluoro-4-isopropyl-3,4-dihydro-2H-benzo[b][1,4]oxazin-6-yl)pyrimidin-2-yl)amino)pyridin-3-yl)piperidin-1-yl)ethan-1-one], the half-inhibitory concentration (IC50) was over 50000 nM at PI3Kδ kinase; 214 nM against FMS kinase; 240 nM in the test on MCF-7; 0.5 nM at CDK4; 0.3 nM against CDK6.

As to `CC(C)N1CCOc2c(F)cc(-c3nc(Nc4cc(F)c(C5CCNCC5)cn4)ncc3F)cc21` [Compound 443, 5-fluoro-4-(8-fluoro-4-isopropyl-3,4-dihydro-2H-benzo[b][1,4]oxazin-6-yl)-N-(4-fluoro-5-(piperidin-4-yl)pyridin-2-yl)pyrimidin-2-amine], the IC50 at PI3Kδ kinase is over 50000 nM; at FMS kinase it was 950 nM; in the test on MCF-7 it was 285 nM; against CDK4 it was 3 nM; against CDK6 it was 3 nM.

Source of the values: patent US11174252B2, “Heterocyclic compounds as kinase inhibitors” (priority 2018, dated 2021).
